Experimental data published in US20250043285A1, “Mammalian ATG8 Proteins and ATG9A Direct Sealing of Autophagosomal Membranes” (UNM Rainforest Innovations, priority 2023, published 2025).
Entries after “also recorded” stand apart in the source; their conditions may differ.

Legend:
[1] = tested on: HeLa cells stably expressing HT-LC3B (LC3B^+ membranes including autophagosomes); assay: HT-LC3B MIL/MPL assay by high content microscopy (autophagic membrane sealing); assay type: cell-based
Protocol: HCM: MIL/MPL assay for assessment of autophagic membrane sealing. HaloTag-LC3B stable cell lines were seeded in 96 well plate at the density of 8,000 cells/well. After 18-24 h cells were induced for autophagy (EBSS for 90 min) or mitophagy (20 μM CCCP for 6 h). After induction, cells were incubated with Membrane Impermeant Ligand (MIL: Alexa Fluor-660 663Ex/690Em, 1 μM, Promega, G8471) prepared in 1×MAS buffer (220 mM mannitol, 70 mM sucrose, 10 mM KH2PO4, 5 mM MgCl2, 2 mM HEPES, 1 mM EGTA, from Sigma) containing XF-PMP (Agilent; 102504-100, 1.5 nM for Huh7 and 4 nM for HeLa cells) at 37° C. for 15 min. Cells were washed twice with 1×PBS and fixed with 4% paraformaldehyde (PFA, Sigma) in PBS for 5 min at RT. Cells were again washed twice with 1×PBS and incubated with Membrane-Permeant Ligand (MPL: TMR 5 μM, 555Ex/585Em, Promega, G8251) for 30 min at RT. Cells were washed once with 1×PBS and stained with Hoechst 33342 (Thermo Scientific, H3570, 1:1000) for 10 min at RT. Cells were washed twice and plate was scanned by High Content Microscopy (HCM) for automated image acquisition and quantification, iDEV software (Thermo) in 96-well plates^5. To test the role of mATG8s in autophagosome closure, we used the previously described strategy^41 employing stable cell lines expressing HT-LC3B, used to assess autophagosomal closure^41, 42, 45. We adapted this assay for high content microscopy (HCM) to allow unbiased operator-independent image collection, object identification and quantification, as previously established^30, 75 (FIG. 1C). […] The plates were scanned to quantify MPL^+ (sealed) and MIL^+ (unsealed) autophagosomes and any additional LC3B^+ structures, and data (quantitative HCM) presented as the number of MIL^+ or MPL^+ profiles/cell and their ratios (MIL/MPL) (FIG. 1D). MIL^+MPL^+ profiles were also observed but represented a very small fraction (<5%) and were not differentiated in quantifications.

[2] = tested on: Huh7^WT and Huh7^ATG9AKO cells; assay: Western blot of Parkin and COX-II under CCCP-induced mitophagy; assay type: cell-based; settings: BafA1 100 nM
From the text: 13A. Schematic representation of proximity biotinylation proteomics (process stages) for LC MS/MS identification of APEX2-ATG9A partners in cells subjected to EBSS-induced autophagy and CCCP-induced mitophagy. 13B, List of ATG9A's key ESCRTs interactors and their peptide counts. 13C, HeLa^WT and HeLa^ATG9AKO cell line stably expressing YFP-Parkin were induced for mitophagy by CCCP or Olygomycin A and Antimycin A (OA). HCM was used to quantify mitophagy by determining remaining mtDNA puncta per cell. Blue squares, HeLa^WT stably expressing YFP-Parkin; red squares, HeLa^ATG9AKO stably expressing YFP-Parkin. 13D, HCM images illustrating mtDNA (red mask) in HeLa^WT and HeLa^ATG9AKO cells stably expressing YFP-Parkin. 13E, Western blot analysis of Huh7^WT and Huh7^ATG9AKO cells, under control conditions (full medium) or subjected to CCCP-induced mitophagy. […] 13G, Western blot analysis of LC3B lipidation in control and CCCP-induced mitophagy condition in Huh7^ATG9AWT or Huh7^ATG9AKO. 13H, Quantification of LC3B dots in Huh7^WT and Huh7^ATG9AKO cells under control conditions or subjected to CCCP-induced mitophagy. […] 13J,13K Quantification of p62 and NDP52 levels in control and proteinase K-treated samples. Statistical significance was determined by one-way ANOVA followed by Tukey's multiple comparison test, P<0.01. […]

CO/C1=C\C(C)=C\[C@@H](C)[C@@H](O)[C@@H](C)C/C(C)=C/C=C/[C@H](OC)[C@@H]([C@@H](C)[C@@H](O)[C@H](C)[C@@]2(O)C[C@@H](O)[C@H](C)[C@@H](C(C)C)O2)OC1=O [BafA1, Bafilomycin A1]
MPL^+ (sealed) profiles/cell ([1]; HeLa^HexaKO HT-LC3B cells, starved in EBSS 90 min, 100 nM BafA1): could not be enhanced by BafA1 treatment
MPL^+ (sealed) profiles/cell ([1]; HeLa^HexaKO, HeLa^LC3TKO and HeLa^GABATKO HT-LC3B cells, EBSS, 100 nM BafA1): no detectable further MPL^+ increase
MPL^+ (sealed) profiles/cell ([1]; HeLa^WT HT-LC3B cells, starved in EBSS 90 min, 100 nM BafA1, vs EBSS alone): further elevated; also recorded: further increased in the presence of BafA1
Parkin and COX-II levels (immunoblot) [2]: accumulation of Parkin and COX-II
